Entries after “also recorded” stand apart in the source; their conditions may differ.
Columns and labels:
[1] = 10 mg/kg dose, Gordon et al., 2001; cited from earlier work
clinical = conditions: human
Protocol: Blood samples will be taken for peak and trough measurements, pre-dose and immediately prior to (end of infusion) EOI, on Cycle 1 Day 1. On Cycle 1 Day 15 full PK sampling will be done: pre-dose, immediately prior to EOI and then 2, 5, 15, 30, 45, 60, 90 and 120 minutes post infusion. The following PK parameters will be estimated by non-compartmental analysis:
Non-compartmental analyses will be performed. […] Blood concentrations and computed PK parameters for MRZ will be listed and summarized by cohort (mean, geometric mean, standard deviation, coefficient of variation, minimum, maximum and number of observations).
For MRZ samples will be obtained before treatment and just prior to end of infusion on Cycle 1 Day 1. On Cycle 1 Day 15, MRZ blood samples will be obtained before treatment, just prior to end of infusion, and 2, 5, 15, 30, 45, 60, 90, and 120 minutes after the infusion. Every effort should be made to collect samples at the prescribed times, but deviations up to 10% of the time point are allowed. […] After blood collection, neutralizing solution must be added.

[2] = Phase 1b MRZ + TMZ (+RT) in newly diagnosed G4 MG: adverse events, DLT; assay type: in vivo, human
Protocol: This is a Phase 1b, open-label, 3+3, dose-escalation followed by dose-expansion study in patients with newly diagnosed G4 MG who have not previously received any local or systemic therapy for their G4 MG. The study will examine the effect of the addition of MRZ to standard of care treatment utilizing two study arms: Concomitant Treatment in which MRZ will be combined with TMZ+RT and Adjuvant Treatment in which MRZ will be combined with TMZ. The study will be conducted in two Stages. In Stage 1 (Dose-Escalation): 3 to 6 evaluable patients per MRZ dose cohort will be enrolled in each study arm. […] A total of approximately 48 patients will be enrolled in Stages 1 and 2 combined. Patients may not be enrolled in more than 1 MRZ dose cohort per arm.
Concomitant Treatment consists of a 6 week (42 day) treatment period, followed by a 4 (−1) week break from treatments. All patients will receive intravenous (IV) MRZ infusion on Days 1, 8, 15, 29, and 36 as a 10 minute infusion. IV hydration will be given prior to the infusion. Focal RT will be administered once daily, 5 days/week, for 30 doses over 6 weeks to a total dose of 60 Gy, starting on Day 1. TMZ will be administered once daily, 7 days/week, for 6 weeks, starting on Day 1, at a dose of 75 mg/m^2. Patients who complete Concomitant Treatment may continue on to Adjuvant Treatment.
All patients will receive IV MRZ infusion on Days 1, 8, and 15 as a 10 minute infusion, in 28-day cycles. IV hydration will be given prior to the infusion. TMZ will be administered daily for 5 consecutive days, starting on Day 1 of Cycle 1 (C1D1), at a dose of 150 mg/m^2. If tolerated in Cycle 1, the TMZ dose will be increased on Day 1 of Cycle 2 (C2D1) to a dose of 200 mg/m^2.

[3] = tested on: trypsin-like (T-L) proteasome activity; assay: Proteasome inhibition in packed whole blood: T-L; assay type: in vivo, human; conditions: for compensatory hyperactivation of T-L and C-L proteasome subunits: repeated dosing
Description: The drugs were infused on 28-Day Cycles.
Change in proteasome activities in packed whole blood (PWB) lysates and peripheral blood mononuclear cell (PBMC) lysates, comparing pre-drug and post drug levels on Days 1, 8, and 15 of Cycle 1; Days 1 and 15 of each Cycle thereafter; and at the End-of Treatment Visit.
The laboratory correlates include assessment of the percentage inhibition of proteasome function (evaluated by measurement of CT-L, T-L and C-L activity in blood isolates such as whole blood and PBMC lysates.
PD analysis will include change in proteasome activities (whole blood lysates and PBMC lysates) by comparing pre-drug and post drug levels on Days 1, 8, and 15 (i.e., for each dose) of Cycle 1 and Days 1 and 15 (i.e., for the first and last doses) of each cycle thereafter.

D54MG cells = assay: Intracranial GBM xenograft survival; assay type: in vivo; conditions: athymic BALB/c nu/nu mice, MRZ IV twice weekly
Protocol: 1×10^5 D54MG cells implanted into right frontal lobes of athymic BALB/c nu/nu mice. MRZ administered IV twice weekly.

[4] = whole blood, intravenous, 0.7 mg/m2
[5] = whole blood, intravenous, 0.8 mg/m2
[6] = N = 20, related to the labelled drug
[7] = N = 20, related to the labelled drug (MRZ+TMZ = related to both)
[8] = patient 301-A202, action taken None
[9] = patient 301-C202, action taken None

Compound: bevacizumab [reference compound]
- Cmax of bevacizumab at Day 0 [1]: 284 µg/mL

Compound: C[C@@]12OC(=O)[C@]1([C@@H](O)[C@@H]1C=CCCC1)NC(=O)[C@@H]2CCCl [marizomib]
- Cmax (clinical; blood, iv, 0.7 mg/m2): 64.9 ± 1.73 ng/mL
- Cmax (clinical; blood, iv, 0.8 mg/m2): 26.5 ± 7.92 ng/mL
- Tmax (clinical; [4]): 11.3 min
- half-life (clinical; [4]): 32 min
- AUC(0-t) (clinical; [5]): 4.05 ng·h/mL
- Cmax (clinical; [5]): 26 ± 8 ng/mL
- Tmax (clinical; [5]): 0 min
- half-life (clinical; [5]): 7.6 ± 0.9 min
- Tmax (clinical; whole blood, intravenous, […]2): 4 min
- half-life (clinical; whole blood, intravenous, […]2): 8.8 ± 0.8 min
- AUC(0-t) (clinical; whole blood, iv, 0.7 mg/m2): 3.22 ng·h/mL
- Tmax (clinical; whole blood, iv, 0.7 mg/m2): 21.3 min
- Vd (clinical; whole blood, iv, 0.7 mg/m2): 48.3 ± 16.1 L
- half-life (clinical; whole blood, iv, 0.7 mg/m2): 16 ± 8.08 min
- AUC(0-t) (clinical; whole blood, iv, 0.8 mg/m2): 6.53 ng·h/mL
- Tmax (clinical; whole blood, iv, 0.8 mg/m2): 8 min
- half-life (clinical; whole blood, iv, 0.8 mg/m2): 7.27 ± 0.423 min
- Tmax (clinical; whole blood, iv, […]2): 15.5 min
- Vd (clinical; whole blood, iv, […]2): 54.4 ± 10.6 L
- half-life (clinical; whole blood, iv, […]2): 8.2 ± 0.8 min
- Discontinued, reason Adverse Event ([2]; N = 20): 1 (5.0%)
- Dose reduction, reason Adverse Event ([2]; N = 20): 1 (5.0%)
- Number of Patients with drug Discontinued ([2]; N = 20): 1 (5.0%)
- Number of Patients with ≥1 Dose Reduction ([2]; N = 20): 1 (5.0%)
- patients with MRZ-related serious adverse events ([2]; N = 20): One
- patients with fatigue Grade ≥3 ([2]; N = 20): Three
- Abdominal pain, Grade ≥3 TEAE, drug related [2, 6]: 0 (0.0%)
- Confusional state, treatment-related TEAE, number of patients [2, 6]: 3
- Confusional state, treatment-related TEAE, percent of patients [2, 6]: (15.0%)
- Constipation, treatment-related TEAE, number of patients [2, 6]: 1
- Constipation, treatment-related TEAE, percent of patients [2, 6]: (5.0%)
- Decreased appetite, treatment-related TEAE, number of patients [2, 6]: 4
- Decreased appetite, treatment-related TEAE, percent of patients [2, 6]: (20.0%)
- Dehydration, Grade ≥3 TEAE, drug related [2, 6]: 1 (5.0%)
- Diarrhoea, treatment-related TEAE, number of patients [2, 6]: 2
- Diarrhoea, treatment-related TEAE, percent of patients [2, 6]: (10.0%)
- Dizziness, treatment-related TEAE, number of patients [2, 6]: 4
- Dizziness, treatment-related TEAE, percent of patients [2, 6]: (20.0%)
- Hallucination, Grade ≥3 TEAE, drug related [2, 6]: 1 (5.0%)
- Hallucination, treatment-related TEAE, number of patients [2, 6]: 5
- Hallucination, treatment-related TEAE, percent of patients [2, 6]: (25.0%)
- Headache, Grade ≥3 TEAE, drug related [2, 6]: 0 (0.0%)
- Headache, treatment-related TEAE, number of patients [2, 6]: 3
- Headache, treatment-related TEAE, percent of patients [2, 6]: (15.0%)
- Insomnia, Grade ≥3 TEAE, drug related [2, 6]: 0 (0.0%)
- Muscular weakness, treatment-related TEAE, number of patients [2, 6]: 3
- Muscular weakness, treatment-related TEAE, percent of patients [2, 6]: (15.0%)
- Musculoskeletal pain, Grade ≥3 TEAE, drug related [2, 6]: 0 (0.0%)
- Nausea, treatment-related TEAE, number of patients [2, 6]: 9
- Nausea, treatment-related TEAE, percent of patients [2, 6]: (45.0%)
- Ovarian cyst, Grade ≥3 TEAE, drug related [2, 6]: 0 (0.0%)
- Pelvic infection, Grade ≥3 TEAE, drug related [2, 6]: 0 (0.0%)
- Platelet count decreased, Grade ≥3 TEAE, drug related [2, 6]: 1 (5.0%)
- Platelet count decreased, treatment-related TEAE, number of patients [2, 6]: 2
- Platelet count decreased, treatment-related TEAE, percent of patients [2, 6]: (10.0%)
- Rash maculo-papular, treatment-related TEAE, number of patients [2, 6]: 1
- Rash maculo-papular, treatment-related TEAE, percent of patients [2, 6]: (5.0%)
- Vomiting, Grade ≥3 TEAE, drug related [2, 6]: 1 (5.0%)
- Vomiting, treatment-related TEAE, number of patients [2, 6]: 5
- Vomiting, treatment-related TEAE, percent of patients [2, 6]: (25.0%)
- Fatigue, Grade ≥3 TEAE, drug related [2, 7]: 3 (15.0%)
- Fatigue, treatment-related TEAE, number of patients [2, 7]: 13
- Fatigue, treatment-related TEAE, percent of patients [2, 7]: (65.0%)
- Grade 2 SAEs (nausea, confusional state), MRZ-related ([2]; interim analysis, 20 patients): two
- Grade 3 SAEs (fatigue, hallucination, vomiting), MRZ-related ([2]; interim analysis, 20 patients): three
- tolerability ([2]; newly diagnosed G4 MG): well tolerated
- SAE Nephrolithiasis, relationship to drug ([2]; patient 104-C302, action taken None): Not Suspected/
- SAE Confusional state, relationship to drug [2, 8]: Suspected/
- SAE Dehydration, relationship to drug [2, 8]: Not Suspected/
- SAE Fatigue, relationship to drug [2, 8]: Suspected/
- SAE Hallucination, relationship to drug [2, 8]: Suspected/
- SAE Nausea, relationship to drug [2, 8]: Suspected/
- SAE Vomiting, relationship to drug [2, 8]: Suspected/
- SAE Ovarian cyst, relationship to drug ([2]; patient 301-C202, action taken Dose Delayed): Not Suspected/
- SAE Convulsion, relationship to drug [2, 9]: Not Suspected/
- SAE Pelvic infection, relationship to drug [2, 9]: Not Suspected/
- % T-L inhibition ([3]; PWB post-MRZ infusion (peak effect), 0.7 mg/m^2 (17 May 2016)): 77.3 ± 10.5 (3) %
- compensatory hyperactivation of T-L and C-L proteasome subunits [3]: overcome compensatory hyperactivation of proteasome subunits; also recorded: overcomes compensatory hyperactivation
- compensatory hyperactivation of T-L and C-L proteasome subunits ([3]; listed as MRZ): overcomes compensatory hyperactivation of proteasome subunits
- activity in intracranial GBM xenograft (D54MG cells): Active

— patent publication US10894036B2, “Use of marizomib for the treatment of central nervous system (CNS) cancers” (Celgene International II Sàrl, priority 2016, dated 2021)
